PubChem BioAssay AID248 (DTP/NCI, 2004)
Inconclusive results and toxic doses are left out. Cut-off read from the data, not from the text of the source: active = T/C of 150% or more; inactive = T/C below 125%. Numbered stars: 1 amine (or outer) side, 2 acyl side, 3 side chain; on linkers, the order of the positions; unused ones are H or OH. Bridge positions count the residues as written; N and C are the ends. Square brackets hold non-standard residues; d marks the D form. Peptide text beside a SMILES is read from it. I, II: the chains in the order shown. Actinocin(9to1) = Cc1c2oc3c(C)ccc(C(=O)[*:1])c3nc-2c(C(=O)[*:2])c(N)c1=O; NMeV = CN[CH](C(=O)O)C(C)C; Sar = CNCC(=O)O

Tested on: L1210 leukemia ip in BDF1 mice, survival T/C
Test: NCI In Vivo Anticancer Drug Screen. Data for tumor model L1210 Leukemia (intraperitoneal) in B6D2F1 (BDF1) mice
Details: endpoint: mean survival time, higher = longer survival
In short: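 Transplanted-tumor mice were given test agent; controls received vehicle only. Survival readings from the two groups were divided (treated over control).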

[1] = dose: 100.0 mg/kg/injection, schedule: Q01DX009 (ip), vehicle: saline
[2] = dose: 100.0 mg/kg/injection, schedule: Q04DX003 (ip), vehicle: saline
[3] = dose: 200.0 mg/kg/injection, schedule: Q04DX003 (ip), vehicle: saline
[4] = dose: 400.0 mg/kg/injection, schedule: Q04DX003 (ip), vehicle: saline
[5] = dose: 100.0 mg/kg/injection, schedule: Q04DX002 (ip), vehicle: saline
[6] = dose: 200.0 mg/kg/injection, schedule: Q04DX002 (ip), vehicle: saline
[7] = dose: 400.0 mg/kg/injection, schedule: Q04DX002 (ip), vehicle: saline
[8] = dose: 100.0 mg/kg/injection, schedule: Q04DX002 (ip), vehicle: Klucel (hydroxypropylcellulose) (HPC)
[9] = dose: 200.0 mg/kg/injection, schedule: Q04DX002 (ip), vehicle: Klucel (hydroxypropylcellulose) (HPC)
[10] = dose: 400.0 mg/kg/injection, schedule: Q04DX002 (ip), vehicle: Klucel (hydroxypropylcellulose) (HPC)
[11] = dose: 1.0 mg/kg/injection, schedule: Q01DX009 (ip), vehicle: saline
[12] = dose: 2.0 mg/kg/injection, schedule: Q01DX009 (ip), vehicle: saline
[13] = dose: 4.0 mg/kg/injection, schedule: Q01DX009 (ip), vehicle: saline
[14] = dose: 100.0 mg/kg/injection, schedule: Q04DX003 (ip), vehicle: saline with Tween-80
[15] = dose: 200.0 mg/kg/injection, schedule: Q04DX003 (ip), vehicle: saline with Tween-80
[16] = dose: 400.0 mg/kg/injection, schedule: Q04DX003 (ip), vehicle: saline with Tween-80

Measured: T/C

CCC(C)(CC(=O)O)CC(=O)O
inactive: [1] 107 % of control | [2] 93 % of control | dose: 200.0 mg/kg/injection, schedule: Q01DX009 (ip), vehicle: saline 93 % of control | [3] 90 % of control | dose: 400.0 mg/kg/injection, schedule: Q01DX009 (ip), vehicle: saline 96 % of control | [4] 92 % of control

CC(O)C(C)Cl (stereo unspecified)
inactive: dose: 50.0 mg/kg/injection, schedule: Q01DX009 (ip), vehicle: saline 100 % of control | [1] 103 % of control

Oc1c(Cl)cc(Cl)cc1/C=C1\C=Nc2ccccc21
inactive: [5] 97 % of control | [6] 94 % of control | [7] 102 % of control

Cc1c2oc3c(C)ccc(C(=O)NC4C(=O)NC(C(C)C)C(=O)N(C)CC(=O)N(C)CC(=O)N(C)C(C(C)C)C(=O)OC4C)c3nc-2c(C(=O)NC2C(=O)NC(C(C)C)C(=O)N(C)CC(=O)N(C)CC(=O)N(C)C(C(C)C)C(=O)OC2C)c(N)c1=O (stereo unspecified) (I: TV[Sar][Sar][NMeV] / II: TV[Sar][Sar][NMeV]; ester I:1-I:C, II:1-II:C; linker I:N-II:N via Actinocin(9to1); configuration not given here)
inactive: dose: 0.05 mg/kg/injection, schedule: Q01DX009 (ip), vehicle: other 94 % of control | dose: 0.1 mg/kg/injection, schedule: Q01DX009 (ip), vehicle: other 108 % of control | dose: 0.2 mg/kg/injection, schedule: Q01DX009 (ip), vehicle: other 106 % of control | dose: 0.4 mg/kg/injection, schedule: Q01DX009 (ip), vehicle: other 115 % of control | dose: 0.5 mg/kg/injection, schedule: Q01DX001 (ip), vehicle: saline + alcohol 105 % of control | dose: 0.8 mg/kg/injection, schedule: Q01DX009 (ip), vehicle: other 120 % of control | dose: 1.0 mg/kg/injection, schedule: Q01DX001 (ip), vehicle: saline + alcohol 112 % of control | dose: 1.6 mg/kg/injection, schedule: Q01DX009 (ip), vehicle: other 92 % of control | dose: 2.0 mg/kg/injection, schedule: Q01DX001 (ip), vehicle: saline + alcohol 116 % of control | dose: 4.0 mg/kg/injection, schedule: Q01DX001 (ip), vehicle: saline + alcohol 113 % of control | dose: 62.5 micrograms/kg/injection, schedule: Q01DX009 (ip), vehicle: saline + alcohol 105 % of control | dose: 125.0 micrograms/kg/injection, schedule: Q01DX009 (ip), vehicle: saline + alcohol 112 % of control | dose: 188.0 micrograms/kg/injection, schedule: Q04DX003 (ip), vehicle: saline + alcohol 107 % of control | dose: 250.0 micrograms/kg/injection, schedule: Q01DX009 (ip), vehicle: saline + alcohol 119 % of control | dose: 375.0 micrograms/kg/injection, schedule: Q04DX003 (ip), vehicle: saline + alcohol 106 % of control | dose: 750.0 micrograms/kg/injection, schedule: Q04DX003 (ip), vehicle: saline + alcohol 112 % of control | dose: 1500.0 micrograms/kg/injection, schedule: Q04DX003 (ip), vehicle: saline + alcohol 119 % of control

O=C(O)c1ccc(C2CC2)cc1
inactive: dose: 100.0 mg/kg/injection, schedule: Q01DX001 (ip), vehicle: other 103 % of control | dose: 100.0 mg/kg/injection, schedule: Q04DX003 (ip), vehicle: other 103 % of control | dose: 200.0 mg/kg/injection, schedule: Q01DX001 (ip), vehicle: other 108 % of control | dose: 200.0 mg/kg/injection, schedule: Q04DX003 (ip), vehicle: other 111 % of control | dose: 400.0 mg/kg/injection, schedule: Q01DX001 (ip), vehicle: other 95 % of control | dose: 400.0 mg/kg/injection, schedule: Q04DX003 (ip), vehicle: other 103 % of control

Cc1ccc(N)cn1
inactive: dose: 25.0 mg/kg/injection, schedule: Q01DX009 (ip), vehicle: Klucel (hydroxypropylcellulose) (HPC) 97 % of control | dose: 25.0 mg/kg/injection, schedule: Q04DX003 (ip), vehicle: Klucel (hydroxypropylcellulose) (HPC) 102 % of control | dose: 50.0 mg/kg/injection, schedule: Q01DX009 (ip), vehicle: Klucel (hydroxypropylcellulose) (HPC) 100 % of control | dose: 50.0 mg/kg/injection, schedule: Q04DX003 (ip), vehicle: Klucel (hydroxypropylcellulose) (HPC) 101 % of control | dose: 100.0 mg/kg/injection, schedule: Q01DX009 (ip), vehicle: Klucel (hydroxypropylcellulose) (HPC) 90 % of control | dose: 100.0 mg/kg/injection, schedule: Q04DX003 (ip), vehicle: Klucel (hydroxypropylcellulose) (HPC) 98 % of control

O=[N+]([O-])c1ccc(Oc2ccc(Br)cc2)c([N+](=O)[O-])c1
inactive: [8] 103 % of control | [9] 93 % of control | [10] 97 % of control

CCCCS(=O)/C=C\S(=O)CCCC (stereo unspecified)
inactive: [5] 117 % of control | [6] 106 % of control

Nc1nc2c(c(=O)[nH]1)N1CN(c3ccc(C(=O)NC(CCC(=O)O)C(=O)O)cc3)CCC1CN2 (stereo unspecified)
inactive: [11] 94 % of control | [12] 100 % of control | [13] 89 % of control | dose: 4.0 mg/kg/injection, schedule: Q04DX003 (ip), vehicle: saline 94 % of control | dose: 8.0 mg/kg/injection, schedule: Q01DX009 (ip), vehicle: saline 100 % of control | dose: 8.0 mg/kg/injection, schedule: Q04DX003 (ip), vehicle: saline 109 % of control | dose: 16.0 mg/kg/injection, schedule: Q01DX009 (ip), vehicle: saline 94 % of control | dose: 16.0 mg/kg/injection, schedule: Q04DX003 (ip), vehicle: saline 87 % of control | dose: 32.0 mg/kg/injection, schedule: Q04DX003 (ip), vehicle: saline 101 % of control | dose: 64.0 mg/kg/injection, schedule: Q04DX003 (ip), vehicle: saline 95 % of control

Nc1nnc(N)c2ccccc12
inactive: [5] 100 % of control | [6] 96 % of control | [7] 102 % of control

CSc1nc(Cl)cc(N2CC2C)n1 (stereo unspecified)
inactive: dose: 25.0 mg/kg/injection, schedule: Q01DX Z (ip), vehicle: methylcellulose (MC) 96 % of control

CCCCCCCCCC(=O)Nc1cccc(C)c1C
inactive: [8] 105 % of control | [9] 94 % of control | [10] 94 % of control

CN(C)Cc1ccccc1COC(=O)c1ccc([N+](=O)[O-])cc1Cl
inactive: [8] 102 % of control | [9] 109 % of control | [10] 94 % of control

COc1ccc(C(CC(=O)c2ccccc2)SCCN2CCOCC2)cc1 (stereo unspecified)
inactive: [14] 95 % of control | [15] 99 % of control

CCC#CC(=O)OCC
inactive: [5] 108 % of control | [6] 97 % of control | [7] 105 % of control

CN(Cc1ccc([N+](=O)[O-])cc1)C(=O)Nc1ccc(S(=O)(=O)F)cc1
inactive: [2] 98 % of control | [3] 101 % of control | [4] 104 % of control

CCCC(=O)NC1CC(OC2CC(O)(C(C)=O)Cc3c(O)c4c(c(O)c32)C(=O)c2c(OC)cccc2C4=O)OC(C)C1O (stereo unspecified)
inactive: dose: 0.25 mg/kg/injection, schedule: Q01DX009 (ip), vehicle: saline 91 % of control | dose: 0.5 mg/kg/injection, schedule: Q01DX009 (ip), vehicle: saline 96 % of control | [11] 91 % of control | [12] 93 % of control | [13] 96 % of control

O=C(O)c1ccc(Cl)nc1
inactive: dose: 50.0 mg/kg/injection, schedule: Q01DX001 (ip), vehicle: carboxymethylcellulose (CMC) 97 % of control | dose: 100.0 mg/kg/injection, schedule: Q01DX001 (ip), vehicle: carboxymethylcellulose (CMC) 94 % of control | [14] 104 % of control | dose: 200.0 mg/kg/injection, schedule: Q01DX001 (ip), vehicle: carboxymethylcellulose (CMC) 92 % of control | [15] 103 % of control | dose: 400.0 mg/kg/injection, schedule: Q01DX001 (ip), vehicle: carboxymethylcellulose (CMC) 94 % of control | [16] 104 % of control

CC12CCCCC1(OC(=O)c1ccc([N+](=O)[O-])cc1)CCCC2 (stereo unspecified)
inactive: dose: 75.0 mg/kg/injection, schedule: Q04DX002 (ip), vehicle: saline with Tween-80 100 % of control | dose: 150.0 mg/kg/injection, schedule: Q04DX002 (ip), vehicle: saline with Tween-80 104 % of control | dose: 300.0 mg/kg/injection, schedule: Q04DX002 (ip), vehicle: saline with Tween-80 88 % of control

O=C(CCNC(=O)OCc1ccccc1)NCC(=O)OCc1ccccc1
inactive: [14] 103 % of control | [15] 97 % of control | [16] 92 % of control
